Assay results published in patent publication US7087623B2, “Thiazole and other heterocyclic ligands for mammalian dopamine, muscarinic and serotonin receptors and transporters, and methods of use thereof” (Sepracor Inc., priority 2001, dated 2006).
Read-outs that look alike come from different tables or passages of the source.

How the values were obtained:
[1] = target: T1, human dopamine D3 receptor (Homo sapiens, UniProt P35462); test: Radioligand binding assay, human dopamine D3 receptors ([3H]Spiperone)
T1 construct: expressed in transfected cells; host or cells: CHO
Experimental: The assay for binding to human D3 receptors was conducted according to Sokoloff, P. et al. Nature 1990, 347, 146.
CHO cells stably transfected with a plasmid encoding the human dopamine D3 receptor were used to prepare membranes in modified Tris-HCl pH 7.4 buffer using standard techniques. […] Non-specific binding was estimated in the presence of 25 μM S-(−)-sulpiride. […] See Sokoloff, P. et al. “Molecular cloning and characterization of a novel dopamine receptor (D3) as a target for neuroleptics” Nature 347: 146–151, 1990.
(§1) The human 5-HT2a and 5-HT2b screens were conducted according to Bonhaus, D. W. et al. Br. J. Pharmacol. 1995, 115, 622. The human […], W. A. et al. J. Neurochem. 1997, 69, 1449. The human 5-HT6 screen was conducted according to Monsama, F. J. et al. Mol. Pharmacol. 1993, 43, 320. The assay to human D3 receptors was conducted according to Sokoloff, P. et al. Nature 1990, 347;146. The human dopamine transporter assay was conducted according to Gu, H. et. al. J. Biol. Chem. 1994, 269 (10);7124; and Giros, B. et al. Trends. Pharmacol. Sci. 1993, 14: 43. The human muscarinic M1–M4 screens were conducted according to Buckley N. J. et al. Mol. Pharmacol. 1989, 35:469.

[2] = target: T2, human serotonin 5-HT6 receptor (Homo sapiens, UniProt P50406); test: Radioligand binding assay, human 5-HT6 receptors ([3H]LSD); conditions: read-out: IC50 (nM) 5-HT6
T2 construct: expressed in transfected cells; host or cells: HeLa/E6-7
Experimental: (§2) The human 5-HT2a and 5-HT2b screens were conducted according to Bonhaus, D. W. et al. Br. J. Pharmacol. 1995, 115, 622. The human 5-HT2c screen was conducted according to Wolf, W. A. et al. J. Neurochem. 1997, 69, 1449. The human 5-HT6 screen was conducted according to Monsma, F. J. et al. Mol. Pharmacol. 1993, 43, 320.
This assay measures binding of [^3H]LSD (lysergic acid diethylamide) to human serotonin 5-HT6 receptors. HeLa/E6–7 cells stably transfected with a plasmid encoding the human serotonin 5-HT6 receptor were used to prepare membranes in modified Tris-HCl pH 7.4 buffer using standard techniques. A 30 μg aliquot of membrane was incubated with 1.5 nM [^3H]LSD for 120 minutes at 37° C. Non-specific binding was estimated in the presence of 5 μM 5-HT. Membranes were filtered and washed 3 times and the filters were counted to determine [^3H]LSD specifically bound. See Monsma, Jr., F. J. et al. “Cloning and expression of a novel serotonin receptor with high affinity for tricyclic psychotropic drugs” Mol. Pharmacol. 43: 320–327, 1993.
as §1

[3] = target: T3, human serotonin 5-HT2C receptor (Homo sapiens, UniProt P28335); test: Radioligand binding assay, human 5-HT2C receptors ([3H]Mesulergine)
T3 construct: expressed in transfected cells; host or cells: CHO-K1
T3 sequence (P28335 33-458): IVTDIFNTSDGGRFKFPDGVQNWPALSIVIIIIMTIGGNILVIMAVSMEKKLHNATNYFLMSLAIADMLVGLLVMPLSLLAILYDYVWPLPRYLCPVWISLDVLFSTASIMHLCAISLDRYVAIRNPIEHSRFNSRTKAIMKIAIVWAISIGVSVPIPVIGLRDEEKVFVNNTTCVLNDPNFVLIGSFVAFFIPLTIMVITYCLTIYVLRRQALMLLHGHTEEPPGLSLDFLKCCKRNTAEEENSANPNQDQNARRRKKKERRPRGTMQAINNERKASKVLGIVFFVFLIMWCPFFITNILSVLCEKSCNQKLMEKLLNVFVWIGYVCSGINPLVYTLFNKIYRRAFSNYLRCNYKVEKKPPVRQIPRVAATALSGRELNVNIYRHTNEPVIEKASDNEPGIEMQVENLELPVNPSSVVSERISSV
Experimental: as §2
CHO-K1 cells stably transfected with a plasmid encoding the human serotonin 5-HT2C receptor were used to prepare membranes in modified Tris-HCl pH 7.7 buffer using standard techniques. […] Non-specific binding was estimated in the presence of 1 μM mianserin. […] See Wolf, W. A. and Schutz, J. S. “The serotonin 5-HT2C receptor is a prominent serotonin receptor in basal ganglia: evidence from functional studies on serotonin-mediated phosphoinositide hydrolysis” J. Neurochem. 69: 1449–1458, 1997.
as §1

[4] = target: T4, human serotonin 5-HT2A receptor (Homo sapiens, UniProt P28223); test: Radioligand binding assay, human 5-HT2A receptors ([3H]Ketanserin)
T4 construct: expressed in transfected cells; host or cells: CHO-K1
Experimental: as §2
CHO-K1 cells stably transfected with a plasmid encoding the human serotonin 5-HT2A receptor were used to prepare membranes in modified Tris-HCl pH 7.7 buffer using standard techniques. […] Non-specific binding was estimated in the presence of 1 μM mianserin. […] See Bonhaus, D. W. et al. “The pharmacology and distribution of human 5-hydroxytryptamine2B (5-HT2B) receptor gene products: comparison with 5-HT2A and 5-HT2C receptors” Brit. J. Pharmacol. 115: 622–628, 1995; and Saucier, C and Albert, P. R. “Identification of an endogenous 5-hydroxytryptamine2A receptor in NIH-3T3 cells: agonist-induced down-regulation involves decreases in receptor RNA and number” J. Neurochem. 68: 1998–2011, 1997.
as §1

[5] = target: T5, human serotonin 5-HT2B receptor (Homo sapiens, UniProt P41595); test: Radioligand binding assay, human 5-HT2B receptors ([3H]LSD); conditions: human 5-HT2b; Example 16 table; read-out: IC50 (nM) 5-HT2b
T5 construct: expressed in transfected cells; host or cells: CHO-K1
Experimental: This assay measures binding of [^3H]LSD to human serotonin 5-HT2B receptors. CHO-K1 cells stably transfected with a plasmid encoding the human serotonin 5-HT2B receptor were used to prepare membranes in modified Tris-HCl pH 7.4 buffer using standard techniques. […] Non-specific binding was estimated in the presence of 10 μM serotonin. Membranes were filtered and washed 3 times and the filters were counted to determine [^3H]LSD specifically bound. See Bonhaus, D. W. et al. “The pharmacology and distribution of human 5-hydroxytryptamine2B (5-HT2B) receptor gene products: comparison with 5-HT2A and 5-HT2C receptors” Brit.
The human 5-HT2b screen was conducted according to Wolf, W. A. et al. J. Neurochem.

[6] = human, Example 100 table, read-out: IC50 (nM) D3
[7] = human, Example 100 table, read-out: IC50 (nM) 5-HT2C
[8] = human, Example 100 table, read-out: IC50 (nM) 5-HT2A

T1 sequence (P35462 whole entry): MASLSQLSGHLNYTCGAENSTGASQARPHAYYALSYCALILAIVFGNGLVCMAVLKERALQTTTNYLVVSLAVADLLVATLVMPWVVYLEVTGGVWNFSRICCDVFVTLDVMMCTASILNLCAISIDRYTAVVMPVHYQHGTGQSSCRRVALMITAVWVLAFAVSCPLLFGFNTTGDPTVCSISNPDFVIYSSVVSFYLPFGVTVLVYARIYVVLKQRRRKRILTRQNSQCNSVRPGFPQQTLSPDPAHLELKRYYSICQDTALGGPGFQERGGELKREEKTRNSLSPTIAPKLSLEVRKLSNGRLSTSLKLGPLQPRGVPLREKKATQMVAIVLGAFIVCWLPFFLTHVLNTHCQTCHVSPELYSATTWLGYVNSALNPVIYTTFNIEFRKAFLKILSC
T2 sequence (P50406 whole entry): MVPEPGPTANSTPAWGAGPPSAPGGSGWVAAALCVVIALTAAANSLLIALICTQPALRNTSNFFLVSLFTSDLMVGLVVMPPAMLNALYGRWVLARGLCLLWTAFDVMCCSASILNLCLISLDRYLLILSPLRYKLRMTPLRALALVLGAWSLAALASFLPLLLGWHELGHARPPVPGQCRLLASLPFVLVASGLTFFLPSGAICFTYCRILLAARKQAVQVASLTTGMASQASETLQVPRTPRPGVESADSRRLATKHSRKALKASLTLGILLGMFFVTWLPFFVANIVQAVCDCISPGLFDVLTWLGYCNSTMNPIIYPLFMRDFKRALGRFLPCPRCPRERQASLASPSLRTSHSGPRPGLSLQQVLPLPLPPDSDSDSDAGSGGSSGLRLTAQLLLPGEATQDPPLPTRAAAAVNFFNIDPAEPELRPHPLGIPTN
T4 sequence (P28223 whole entry): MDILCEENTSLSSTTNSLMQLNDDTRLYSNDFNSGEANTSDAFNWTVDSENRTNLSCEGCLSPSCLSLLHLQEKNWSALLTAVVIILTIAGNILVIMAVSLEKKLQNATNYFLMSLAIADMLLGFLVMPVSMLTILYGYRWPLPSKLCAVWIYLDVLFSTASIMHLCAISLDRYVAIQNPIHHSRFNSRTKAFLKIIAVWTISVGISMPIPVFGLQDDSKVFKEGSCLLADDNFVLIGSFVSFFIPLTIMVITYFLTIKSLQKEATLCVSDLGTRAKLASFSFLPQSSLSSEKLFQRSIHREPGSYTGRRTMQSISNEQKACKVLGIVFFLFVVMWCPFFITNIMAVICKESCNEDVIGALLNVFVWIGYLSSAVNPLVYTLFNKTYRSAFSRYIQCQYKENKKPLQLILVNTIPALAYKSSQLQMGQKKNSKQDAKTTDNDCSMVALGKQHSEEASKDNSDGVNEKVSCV
T5 sequence (P41595 whole entry): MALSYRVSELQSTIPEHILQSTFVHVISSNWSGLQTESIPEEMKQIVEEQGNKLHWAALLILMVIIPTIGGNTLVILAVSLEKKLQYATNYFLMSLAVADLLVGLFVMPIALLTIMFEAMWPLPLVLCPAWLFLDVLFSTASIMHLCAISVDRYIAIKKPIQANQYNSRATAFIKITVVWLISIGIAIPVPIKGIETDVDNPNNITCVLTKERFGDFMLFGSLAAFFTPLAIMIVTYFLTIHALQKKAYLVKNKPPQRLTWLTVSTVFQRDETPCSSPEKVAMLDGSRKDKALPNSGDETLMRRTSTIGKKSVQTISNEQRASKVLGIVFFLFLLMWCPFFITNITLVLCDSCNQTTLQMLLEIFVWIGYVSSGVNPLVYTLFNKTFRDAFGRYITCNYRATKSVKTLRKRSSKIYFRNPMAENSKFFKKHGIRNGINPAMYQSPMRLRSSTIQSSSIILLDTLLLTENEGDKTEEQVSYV

| SMILES | IC50 [1, 6] [nM] | IC50 ([2]; human, Example 100 table) [nM] | IC50 [3, 7] [nM] | IC50 [4, 8] [nM] | other results |
| --- | --- | --- | --- | --- | --- |
| CCN1CCCC1CNc1nc(C2(c3ccccc3F)CCCCC2)cs1 (racemic) [Compound 131, (1-ethyl-pyrrolidin-2-ylmethyl)-{4-[1-(2-fluorophenyl)-cyclohexyl]-thiazol-2-yl}-amine] | < 1000 | < 1000 |  |  |  |
| Clc1ccc(C2(c3csc(NCCCN4CCOCC4)n3)CCC2)cc1 [Compound 21, {4-[1-(4-chlorophenyl)-cyclobutyl]thiazol-2-yl}-(3-morpholin-4-yl-propyl)amine] |  |  |  |  | IC50 ([1]; Example 20 table, read-out: IC50 (nM) Against Human D3 Receptors): > 1000 nM; IC50 [5]: < 1000 nM; IC50 ([3]; human 5-HT2c, Example 16 table, read-out: IC50 (nM) 5-HT2c): < 1000 nM; IC50 ([2]; human 5-HT6, Example 16 table): > 1000 nM; IC50 ([4]; human 5-HT2a, Example 16 table, read-out: IC50 (nM) 5-HT2a): > 1000 nM |
| Clc1ccc(C2(c3csc(NCCCN4CCOCC4)n3)CCCCC2)cc1 [Compound 94, {4-[1-(4-chloro-phenyl)-cyclohexyl]-thiazol-2-yl}-(3-morpholin-4-yl-propyl)-amine] | > 1000 | < 1000 | < 1000 | > 1000 |  |
| Fc1ccccc1C1(c2csc(NCCCN3CCOCC3)n2)CCCC1 [Compound 96] | > 1000 | > 1000 | > 1000 | > 1000 |  |
| COc1ccccc1N1CCN(c2nc(C3(c4ccccc4F)CCCCC3)cs2)CC1 [Compound 97] | > 1000 | > 1000 | > 1000 | > 1000 |  |
| Clc1ccc(C2(c3csc(NCCCN4CCOCC4)n3)CCCC2)cc1 [Compound 100] | > 1000 | < 1000 | < 1000 | > 1000 |  |
| Clc1ccc(C2(c3csc(NCCN4CCCCC4)n3)CCCC2)cc1 [Compound 101] | < 1000 | < 1000 |  |  |  |
| Clc1ccc(C2(c3csc(NCCN4CCOCC4)n3)CCCCC2)cc1 [Compound 102] | > 1000 | < 1000 |  |  |  |
| CN1CCCN(c2nc(C3(c4ccc(Cl)cc4)CCCC3)cs2)CC1 [Compound 105] | < 100 | < 1000 | < 1000 | < 1000 |  |
| CNC1CCN(c2nc(C3(c4ccc(Cl)cc4)CCCCC3)cs2)C1 (stereo not drawn) [Compound 106] | > 1000 | > 1000 | > 1000 | > 1000 |  |
| CCN(CC)CCCNc1nc(C2(c3ccccc3F)CCCC2)cs1 [Compound 114] | > 1000 | > 1000 |  |  |  |
| Clc1ccc(C2(c3csc(NC4CCN(Cc5ccccc5)C4)n3)CCCCC2)cc1 (stereo not drawn) [Compound 119] | > 1000 | > 1000 |  |  |  |
| Clc1ccc(C2(c3csc(N4CCOCC4)n3)CCOCC2)cc1 [Compound 124, 4-{4-[4-(4-Chloro-phenyl)-tetrahydro-pyran-4-yl]-thiazol-2-yl}-morpholine] | > 1000 | > 1000 | > 1000 | > 1000 |  |

Now from value to molecule, other results behind:

| IC50 [1, 6] [nM] | IC50 ([2]; human, Example 100 table) [nM] | SMILES | IC50 [3, 7] [nM] | IC50 [4, 8] [nM] | other results |
| --- | --- | --- | --- | --- | --- |
| > 1000 | > 1000 | CN(C)C1CCN(c2nc(C3(c4ccccc4F)CCCCC3)cs2)C1 (racemic) [Compound 136, (1-{4-[1-(2-Fluoro-phenyl)-cyclohexyl]-thiazol-2-yl}-pyrrolidin-3-yl)-dimethylamine] |  |  |  |
| < 1000 | < 1000 | CN1CCCC1CCNc1nc(C2(c3ccccc3F)CCCCC2)cs1 (single isomer, unassigned) [Compound 129, {4-[1-(2-fluorophenyl)-cyclohexyl]-thiazol-2-yl}-[2-(1-methyl-pyrrolidin-2-yl)-ethyl]-amine] | < 1000 | < 1000 |  |
| < 1000 | < 1000 | CN1CCCC1CCNc1nc(C2(c3ccc(Cl)cc3)CCCCC2)cs1 (stereo not drawn) [Compound 95, {4-[1-(4-chloro-phenyl)-cyclohexyl]-thiazol-2-yl}-[2-(1-methyl-pyrrolidin-2-yl)-ethyl] amine] | < 1000 | < 1000 |  |
| > 1000 | > 1000 | CCN(CC)CCCNc1nc(C2(c3cccc(Cl)c3)CCOCC2)cs1 [Compound 98, N-{4-[4-(3-chloro-phenyl)-tetrahydro-pyran-4yl]-thiazol-2-yl}-N,N-diethyl-propane-1,3-diamine] |  |  |  |
| < 1000 | < 1000 | CCN(CC)CCCNc1nc(C2(c3ccc(Cl)cc3)CCCCC2)cs1 [Compound 103] | < 1000 | < 1000 |  |
| < 1000 | > 1000 | Clc1ccc(C2(c3csc(N4CCC(N5CCCCC5)CC4)n3)CCCCC2)cc1 [Compound 107] |  |  |  |
| < 1000 | < 100 | CN1CCC(N(C)c2nc(C3(c4ccc(Cl)cc4)CCCCC3)cs2)C1 (stereo not drawn) [Compound 108] |  |  |  |
| < 1000 | < 100 | Clc1ccc(C2(c3csc(N4CCNCC4)n3)CCCC2)cc1 [Compound 109] |  |  |  |
| > 1000 | > 1000 | Fc1ccccc1C1(c2csc(N3CCN(Cc4ccc(Cl)cc4)CC3)n2)CCCC1 [Compound 110] |  |  |  |
| < 1000 | < 1000 | CN1CCCN(c2nc(C3(c4ccc(Cl)cc4)CCCCC3)cs2)CC1 [Compound 115] |  |  |  |
| > 1000 | > 1000 | CN(C)C1CCN(c2nc(C3(c4ccc(Cl)cc4)CCCCC3)cs2)C1 (stereo not drawn) [Compound 117] |  |  |  |
| > 1000 | < 1000 | CN(C)C1CCN(c2nc(C3(c4ccc(Cl)cc4)CCCC3)cs2)C1 (stereo not drawn) [Compound 118] |  |  |  |
| < 1000 | < 100 | Fc1ccccc1C1(c2csc(N3CCNCC3)n2)CCCCC1 [Compound 127, 1-{4-[1-(2-Fluorophenyl)-cyclohexyl]-thiazol-2-yl}-piperazine] |  |  |  |
